The values below come from US7371745B2, “Bis-transition-metal-chelate probes” (Rutgers, The State University of New Jersey, priority 2002, dated 2008).

The nature of data set [1]: Spectroscopic properties of the fluorochromes. The data set is classed as physicochemical.
The target of data set [2] is T1, (CAP-His6)-DNA^F complex (Escherichia coli, UniProt P0ACJ8). The settings on record: for donor-acceptor distance, R: fluorescein on DNA^F to probe on His6 of CAP-His6.
For data set [3], the target named is CAP-His6 (Escherichia coli, UniProt P0ACJ8). The settings on record: control titration with CAP (no His6 tag).
Chain of CAP-His6 (P0ACJ8 2-210, added parts left off): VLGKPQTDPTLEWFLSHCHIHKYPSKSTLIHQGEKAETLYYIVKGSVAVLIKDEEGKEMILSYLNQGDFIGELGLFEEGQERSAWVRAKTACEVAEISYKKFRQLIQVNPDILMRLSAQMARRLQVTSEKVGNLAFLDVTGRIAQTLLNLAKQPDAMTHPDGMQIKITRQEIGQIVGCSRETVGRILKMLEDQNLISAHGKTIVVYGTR
Description: Formation of a complex of the probe with a His6-tagged protein was detected as an increase in fluorescence anisotropy, A, arising from the increase in molecular size and corresponding decrease in rotational dynamics.
Reaction mixtures were titrated with 0-3 μM CAP-His6 (or CAP) by successive addition of 0.5-4 μl aliquots of 2-4 μM CAP-His6 (or CAP) in the same buffer. Fluorescence anisotropy was determined at the start of the titration and 5 min after each successive addition in the titration. All solutions were maintained at 25° C.
Fluorescence measurements were performed using a commercial steady-state fluorescence instrument (QM-1, PTI) equipped with T-format Glan-Thompson polarizers (PTI). […] Slit widths were 10 nm. Fluorescence emission intensities were corrected for background by subtraction of fluorescence emissions intensities for control reactions containing identical concentrations of CAP-His6 or CAP but not containing probe.
Fluorescence anisotropy, A, was calculated using: A=(IVV−GIVH)/(IVV+2GVH) where IVV and IVH are the fluorescent intensities with the excitation polarizer at a vertical position and the emission polarizers at vertical and horizontal positions, respectively, and G is the grating correction factor. […] Equilibrium dissociation constants were calculated using linear regression.
The target in data set [4] is T1, (CAP-His6)-DNA^F complex. As to conditions: control titration with the CAP-DNA^F complex.
Description: FRET assays using the probes according to the invention then were performed to verify interactions, to detect a target material, and to measure an intermolecular distance.
Reaction mixtures (200 μl, in 50 μl quartz micro-cuvettes (Starna)) contained 5 nM DNA^F and 50 nM CAP-His6 (or CAP) in buffer C. […] Fluorescence emission was determined at the start of the titration and 5 min after each successive addition in the titration. All solutions were maintained at 25° C.
Fluorescence emission intensities, F, were measured using a commercial steady-state fluorescence instrument (QM-1, PTI) equipped with T-format Glan-Thompson polarizers (PTI) set at 54.7° (“magic angle”).
Data were plotted as E vs. titrant concentration, and binding curves and equilibrium dissociation constants were calculated using non-linear regression (as described in Gunasekera, A. et al., J. Biol. Chem., 267:14,713-14,720 (1992)).

Where “and” joins values, the source holds several entries; their conditions need not be identical. Equal values may be shown once.

T1 sequence (P0ACJ8 2-210, added parts left off, one chain of several): as the sequence (P0ACJ8 2-210, added parts left off) above

With (Ni^2+-NTA)2-Cy3, in data set [1], the “quantum yield (Q)” value is given as 0.04; the “λmax, em” value came out at 565 nm; the “λmax, exc” value was 552 nm. In addition, the “donor-acceptor distance, R” value in data set [2] was found to be 58 Å. The substance also had a specificity in data set [3] of over 95%. This substance also gave a specificity in data set [4] of over 95%.

Take (Ni^2+-NTA)2-Cy5: in data set [1], the “quantum yield (Q)” value was determined as 0.05; the “λmax, em” value worked out at 668 nm; the “λmax, exc” value is recorded as 650 nm. For the same substance, the “efficiency of FRET at saturation, Esat” value in data set [2] (fluorescein donor on DNA^F, probe as acceptor) was 0.45 and 0.25. For the same substance, in data set [2], the “donor-acceptor distance, R” value came to 53 Å. The same substance showed a specificity in data set [3] of over 95%. The same substance returned a specificity in data set [4] of over 95%.
